Experimental data from publication PMC2947196 (2010).

Key:
[1] = target: T1, MCT2 (monocarboxylate transporter 2) (Rattus norvegicus, UniProt Q63344); assay: inhibition of L-[…]lactate uptake in Xenopus oocytes; type: cell-based; settings: read-out: % inhibition at 10 nM
T1 sequence (Q63344 1-489): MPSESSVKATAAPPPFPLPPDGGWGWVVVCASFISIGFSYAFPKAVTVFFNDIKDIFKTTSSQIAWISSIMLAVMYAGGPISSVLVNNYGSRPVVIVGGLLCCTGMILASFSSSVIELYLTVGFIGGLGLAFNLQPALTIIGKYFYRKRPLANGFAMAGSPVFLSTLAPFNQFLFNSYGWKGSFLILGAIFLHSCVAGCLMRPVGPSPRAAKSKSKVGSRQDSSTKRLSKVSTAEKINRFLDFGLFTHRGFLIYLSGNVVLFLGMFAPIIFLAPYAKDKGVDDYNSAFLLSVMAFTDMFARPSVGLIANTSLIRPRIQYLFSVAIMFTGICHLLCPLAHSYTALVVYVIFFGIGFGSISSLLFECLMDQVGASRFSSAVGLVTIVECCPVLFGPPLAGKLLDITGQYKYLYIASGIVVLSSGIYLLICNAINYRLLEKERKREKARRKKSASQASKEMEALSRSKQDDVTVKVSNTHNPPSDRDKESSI

[2] = target: MCT1 (monocarboxylate transporter 1) (Rattus norvegicus, UniProt P53987); assay: as above; type: cell-based; settings: read-out: Inhibitor-insensitive component (%)
CC(O)C(=O)O = assay: cells, lysate or membranes

Sequence of MCT1 (monocarboxylate transporter 1) (P53987 whole entry): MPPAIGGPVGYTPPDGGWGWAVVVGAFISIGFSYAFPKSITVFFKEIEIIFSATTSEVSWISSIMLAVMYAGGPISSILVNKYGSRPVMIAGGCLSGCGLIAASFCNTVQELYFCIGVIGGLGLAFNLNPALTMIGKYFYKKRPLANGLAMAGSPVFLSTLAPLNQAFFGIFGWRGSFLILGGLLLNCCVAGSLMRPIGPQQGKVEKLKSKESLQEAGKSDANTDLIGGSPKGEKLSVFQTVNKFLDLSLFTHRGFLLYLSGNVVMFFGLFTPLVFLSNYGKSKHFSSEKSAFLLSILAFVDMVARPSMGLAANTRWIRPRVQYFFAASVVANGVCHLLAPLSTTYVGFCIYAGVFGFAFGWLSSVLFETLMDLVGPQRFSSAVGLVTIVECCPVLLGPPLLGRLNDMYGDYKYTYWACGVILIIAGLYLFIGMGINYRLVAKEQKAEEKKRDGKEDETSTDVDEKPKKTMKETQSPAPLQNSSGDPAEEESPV

| inhibition at 0.01 µM [1] | activity at 0.1 µM [2] | Compound | Km (CC(O)C(=O)O) |
| --- | --- | --- | --- |
| ~70% | 1.9 ± 0.6% | Cc1n[nH]c(C)c1Cc1sc2c(c1C(=O)N1C[C@H](O)CO1)c(=O)n(C)c(=O)n2CC(C)C [AR-C155858] | – |
| – | – | MCT1 (monocarboxylate transporter 1) (Rattus norvegicus) | 4.4 ± 1.5 mM |
